Like-named read-outs stand apart in the source and are kept apart here.

The target in one experiment is T1, APP-CTF (Homo sapiens, UniProt P05067).
T1 construct: this protein was designated α-secretase-derived APP CTF (CTF83) on the basis of molecular weight; expressed in transfected cells
In words: Photoaffinity labelling of APP and APP CTF in H4 cell membrane fractions and competition. It counts as binding. The settings on record: photoprobe 25 μM, competitor 200 μM. As for the experimental part: Photoaffinity labelling. All experiments used the following general protocol. Samples (recombinant or synthetic peptides, cell lysates and membrane preparations) were exposed in borosilicate test tubes to ultraviolet light (350 nm) in a Rayonet Photoreactor R100 (RPR-3500 lamps, Southern New England Ultra Violet Company) in a cold room (4° C.) for 30 minutes or as otherwise noted. Crosslinked samples were analyzed by ELISA for biotin incorporation, or analyzed directly by SDS-PAGE (Criterion-XT, Bio-Rad), or after precipitation with streptavidin ultralink plus beads (Pierce). After immunblotting, proteins were detected using chemiluminesence (ECL Plus, GEHealthcare) or near-infrared fluorescence (LiCor Odyssey). Full-length APP and APP CTFs (CTF83, CTF99) were detected with CT20, a rabbit polyclonal antibody against the C-terminus of APP. Biotin was detected with an affinity-purified rabbit polyclonal antibody (Bethyl). Cell-based screens for amyloid-β modulation.

In experiment [1] the test system is Human H4 neuroglioma cells expressing wild-type APP695 protein or CTF105. The experiment is described as follows: Cell-based screens for amyloid-β modulation (H4 cells, ELISA). The settings on record: for EC50: Homo sapiens, cellular dose-response. An excerpt:
Photoaffinity labelling. All experiments used the following general protocol. […] Cell-based screens for amyloid-β modulation. […] Statistical analysis.

The next experiment relates to Tg2576 mice. The experiment is described as follows: Acute oral dosing of Tg2576 mice, brain soluble Aβ after 4 hours. The class given is in vivo, mouse. As for the experimental part:
FIG. 2. Aβ modulating agents can inhibit Aβ aggregation, and agents that bind Aβ amyloid can modulate Aβ42 production. […] (C) Aβ42 modulating agents inhibit naturally secreted oligomer formation. 7PA2 cells were treated with fenofibrate, FT-1, or FT-9 at 50 μM and oligomers assessed by IP Western blotting. […] (D) FT-9, an Aβ42 reducing agent, can inhibit Aβ42 aggregation in vitro.
FIG. 13. Compounds that bind Aβ are GSMs in vitro and in vivo. (A) A cell-based screen of Aβ-binders identified molecules that increase Aβ42 (DAPH) or decrease Aβ42 (Bis-ANS, X-34 or chrysamine G (CG)). Data are mean±s.e.m., n=3. (B) X-34 is an Aβ42-lowering GSM. Changes in amyloid-β peptide amounts after X-34 treatment are shown. Data are presented as percentage control±s.e.m., n=3. EC50 values were calculated. […] NA, not applicable. (C) X-34 binds to APP(C100)-Flag and decreases labeling by GSM photoprobes. Biotin incorporation into APP by Fen-B and Flurbi-BpB is presented as percentage of control (peptide without X-34)±s.e.m., n=2. (D) X-34 lowers Aβ42 in Tg2576 mice after 4 h. […] Data are presented as amyloid-β percentage of control relative to vehicle±s.e.m. Animals per group (n). Asterisk, P,0.05; two asterisks, P,0.01; ANOVA with Dunnett's post-hoc analysis.
Finally, X-34 was tested for its ability to modulate Aβ42 amounts in an APP transgenic mouse (Tg2576).

For a further experiment, the target named is T2, APP(C100)-Flag (Homo sapiens, UniProt P05067).
T2 construct: APP(C100)-Flag, comprising the 99 C-terminal residues of APP plus a methionine at the N-terminus; added methionine (N)
T2 sequence (P05067 672-770 limits assumed): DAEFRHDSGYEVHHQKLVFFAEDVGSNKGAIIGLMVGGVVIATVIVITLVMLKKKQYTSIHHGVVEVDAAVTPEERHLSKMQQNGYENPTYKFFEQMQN
In words: Photoaffinity labelling of APP(C100)-Flag and competition. It counts as binding. As for the experimental part:
FIG. 1. […] The top panel is for anti-biotin staining; the middle panel is for anti-FLAG staining; and the bottom panel is an overlay of anti-biotin (red and anti-Flag green, LiCor Odyssey imaging). (E) Same samples as in D, but analyzed using an ELISA. Following crosslinking, C100Flag and N100 Flag were captured using anti-FLAG plate, and biotin incorporation was measured using streptavidin-HRP. […] Fen-B (50 μM) was crosslinked to Aβ (10 μM). Biotin labeling was measured following capture with an anti-Aβ1-16 antibody and detection with streptavidin-HRP.
Photoaffinity labelling. All experiments used the following general protocol. Samples (recombinant or synthetic peptides, cell lysates and membrane preparations) were exposed in borosilicate test tubes to ultraviolet light (350 nm) in a Rayonet Photoreactor R100 (RPR-3500 lamps, Southern New England Ultra Violet Company) in a cold room (4° C.) for 30 minutes or as otherwise noted. Crosslinked samples were analyzed by ELISA for biotin incorporation, or analyzed directly by SDS-PAGE (Criterion-XT, Bio-Rad), or after precipitation with streptavidin ultralink plus beads (Pierce). After immunblotting, proteins were detected using chemiluminesence (ECL Plus, GEHealthcare) or near-infrared fluorescence (LiCor Odyssey). Full-length APP and APP CTFs (CTF83, CTF99) were detected with CT20, a rabbit polyclonal antibody against the C-terminus of APP. Biotin was detected with an affinity-purified rabbit polyclonal antibody (Bethyl). Cell-based screens for amyloid-β modulation. Human H4 neuroglioma cells (American Type Culture Collection, ATCC) expressing wild-type APP695 protein or CTF105 fused to secreted alkaline phosphatase which is efficiently processed to APP CTFs (CTF83, CTF99) and produce high levels of amyloid-β, were used for the cell-based screens as previously described. Cells were incubated for 5-6 hours in the presence of the various compounds in Opti-Mem culture medium containing 1% fetal bovine serum. Compounds were dissolved in dimethylsulphoxide (DMSO; 0.5% final concentration) and diluted 200-fold. Media was analyzed for various amyloid-β species (40, 42 and total) using ELISAs as described herein. The EC50 values for changes in amyloid-β species were calculated by fitting sigmoid dose-response curves using nonlinear regression in Prism (GraphPad) and are shown as values±s.e.m. Statistical analysis. Data are presented as either percentage control or mean±s.e.m. Results were analyzed using Prism (Graph Pad) with t-tests or one-way analysis of variance analyses (ANOVAs) with Dunnett's post-hoc correction for comparison of multiple samples to a control. Statistical significance is shown as P,0.05 (one asterisk), P,0.01 (two asterisks) or P,0.001 (three asterisks).
The ability of a purified, recombinant Flag-tagged γ-secretase substrate derived from APP (APP(C100)-Flag, comprising the 99 C-terminal residues of APP plus a methionine at the N-terminus) to be labeled by Fen-B and Flurbi-BpB was tested.

T1 sequence (P05067 688-770 limits assumed): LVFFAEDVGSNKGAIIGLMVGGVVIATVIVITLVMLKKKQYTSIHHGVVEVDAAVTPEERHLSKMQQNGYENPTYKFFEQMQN

On to `O=C(O)c1cc(C=Cc2ccc(C=Cc3ccc(O)c(C(=O)O)c3)cc2)ccc1O` [X-34, 1,4-bis(3-carboxy-4-hydroxyphenylethenyl)-benzene], for which, on APP-CTF, the “competition of APP-CTF labeling by Fen-B and Flurbi-BpB” value is listed as “decreases labeling of APP-CTF”. The “total amyloid-β amounts” value in experiment [1] is “did not decrease”. The Aβ42 levels entry in experiment [1] (H4 cells expressing APP) is “decrease”. Further, the 50% effective concentration (EC50) in experiment [1] (read-out: EC50, lowering of Aβ40) turned out to be 60.7 µM. In addition, in experiment [1] (read-out: EC50, lowering of Aβ42), the 50% effective concentration (EC50) was found to be 13.7 µM. Moreover, in the experiment on Tg2576 mice (100 mg kg21, Tg2576 mice, 4 h), the “Aβ40 in the brains” value is recorded as “no effects” and the “decrease of soluble Aβ42 in the brains” value is 35%. Moreover, in the experiment on Tg2576 mice (Tg2576, oral gavage, 4 hours), the “selectivity of Aβ reduction (Aβ42 vs Aβ40)” value is reported as “selective reductions of Aβ42”. Also, at APP(C100)-Flag, the “competition for binding of APP(C100)-Flag by Fen-B and Flurbi-BpB” value was “competed”.

Values taken from patent US20110021471A1, “REDUCING Abeta42 LEVELS AND Abeta AGGREGATION” (priority 2007, published 2011).
